Reference: patent US20260048047A1, “SMALL-MOLECULE ACTIVATORS OF MYCOBACTERIUM TUBERCULOSIS ADENYLYL CYCLASE” (priority 2022, published 2026)
Where two headings read alike, the source gives them in different places.

Test system: M. tuberculosis
Assay: Extracellular activity against M. tuberculosis in cholesterol media (Alamar Blue reduction assay)
Assay type: cell-based, Mycobacterium tuberculosis
Details: 7H12-Cholesterol media, 10 days, read-out: Cholesterol broth: alamar blue--EC50
[1] = Mycobacterium tuberculosis, 240 h

SMILES	EC50 [1] [µM]	EC50 [µM]
O=C(Cc1cc(=O)[nH]c(=O)[nH]1)N1CCC(c2nc(-c3ccc(F)cc3)no2)CC1 [Compound 1, 6-(2-(4-(3-(4-fluorophenyl)-1,2,4-oxadiazol-5-yl)piperidin-1-yl)-2-oxoethyl)pyrimidine-2,4(1H,3H)-dione]	0.784	–
O=C(Cc1cnccn1)N1CCC(n2nnc(-c3ccc(F)cc3)n2)CC1 [Compound 2, 1-(4-(5-(4-fluorophenyl)-2H-tetrazol-2-yl)piperidin-1-yl)-2-(pyrazin-2-yl)ethan-1-one]	–	> 10
O=c1cc(CN2CCC(c3nc(-c4ccc(Cl)c(Cl)c4)no3)CC2)[nH]c(=O)[nH]1 [Compound 3, 6-((4-(3-(3,4-dichlorophenyl)-1,2,4-oxadiazol-5-yl)piperidin-1-yl)methyl)pyrimidine-2,4(1H,3H)-dione]	0.179	–
O=C(Cc1cnccn1)N1CCC(n2nnc(-c3ccc(F)cc3)n2)CC1 [Compound 4, 1-(4-(5-(4-fluorophenyl)-2H-tetrazol-2-yl)piperidin-1-yl)-2-(pyrazin-2-yl)ethan-1-one]	–	0.122
CC(C)c1noc(CC(=O)N2CCC(c3nc(-c4ccc(Cl)c(Cl)c4)no3)CC2)n1 [Compound 5, 1-(4-(3-(3,4-dichlorophenyl)-1,2,4-oxadiazol-5-yl)piperidin-1-yl)-2-(3-isopropyl-1,2,4-oxadiazol-5-yl)ethan-1-one]	1.43	–
CC(C)c1noc(CC(=O)N2CCC(c3nc(-c4ccc(F)cc4)no3)CC2)n1 [Compound 6, 1-(4-(3-(4-fluorophenyl)-1,2,4-oxadiazol-5-yl)piperidin-1-yl)-2-(3-isopropyl-1,2,4-oxadiazol-5-yl)ethan-1-one]	2.98	–
Cc1cncnc1CC(=O)N1CCC(c2nc(C3CCCCC3)no2)CC1 [Compound 7, 1-(4-(3-cyclohexyl-1,2,4-oxadiazol-5-yl)piperidin-1-yl)-2-(5-methylpyrimidin-4-yl)ethan-1-one]	> 25	–
Cc1cncnc1CC(=O)N1CCC(c2nc(-c3ccc(Cl)c(Cl)c3)no2)CC1 [Compound 8, 1-(4-(3-(3,4-dichlorophenyl)-1,2,4-oxadiazol-5-yl)piperidin-1-yl)-2-(5-methylpyrimidin-4-yl)ethan-1-one]	0.479	–
Cc1cncnc1CC(=O)N1CCC(c2nc(-c3ccc(F)cc3)no2)CC1 [Compound 9, 1-(4-(3-(4-fluorophenyl)-1,2,4-oxadiazol-5-yl)piperidin-1-yl)-2-(5-methylpyrimidin-4-yl)ethan-1-one]	3.68	–
Cc1conc1CC(=O)N1CCC(c2nc(-c3ccc(Cl)c(Cl)c3)no2)CC1 [Compound 10, 1-(4-(3-(3,4-dichlorophenyl)-1,2,4-oxadiazol-5-yl)piperidin-1-yl)-2-(4-methylisoxazol-3-yl)ethan-1-one]	0.284	–
Cc1conc1CC(=O)N1CCC(c2nc(-c3ccc(F)cc3)no2)CC1 [Compound 11, 1-(4-(3-(4-fluorophenyl)-1,2,4-oxadiazol-5-yl)piperidin-1-yl)-2-(4-methylisoxazol-3-yl)ethan-1-one]	1.43	–
Cc1nc(CC(=O)N2CCC(c3nc(-c4ccc(F)cc4)no3)CC2)no1 [Compound 12, 1-(4-(3-(4-fluorophenyl)-1,2,4-oxadiazol-5-yl)piperidin-1-yl)-2-(5-methyl-1,2,4-oxadiazol-3-yl)ethan-1-one]	> 10	–
Cc1nccnc1CC(=O)N1CCC(c2nc(C3CCCCC3)no2)CC1 [Compound 13, 1-(4-(3-cyclohexyl-1,2,4-oxadiazol-5-yl)piperidin-1-yl)-2-(3-methylpyrazin-2-yl)ethan-1-one]	> 25	–
Cc1nccnc1CC(=O)N1CCC(c2nc(-c3ccc(Cl)c(Cl)c3)no2)CC1 [Compound 14, 1-(4-(3-(3,4-dichlorophenyl)-1,2,4-oxadiazol-5-yl)piperidin-1-yl)-2-(3-methylpyrazin-2-yl)ethan-1-one]	8.32	–
Cc1nccnc1CC(=O)N1CCC(c2nc(-c3ccc(F)cc3)no2)CC1 [Compound 15, 1-(4-(3-(4-fluorophenyl)-1,2,4-oxadiazol-5-yl)piperidin-1-yl)-2-(3-methylpyrazin-2-yl)ethan-1-one]	1.22	–
Cc1nnn(CC(=O)N2CCC(c3nc(-c4ccc(Cl)c(F)c4)no3)CC2)n1 [Compound 16, 1-(4-(3-(4-chloro-3-fluorophenyl)-1,2,4-oxadiazol-5-yl)piperidin-1-yl)-2-(5-methyl-2H-tetrazol-2-yl)ethan-1-one]	0.79	–
Cc1nnnn1CC(=O)N1CCC(c2nc(-c3ccc(Cl)c(F)c3)no2)CC1 [Compound 17, 1-(4-(3-(4-chloro-3-fluorophenyl)-1,2,4-oxadiazol-5-yl)piperidin-1-yl)-2-(5-methyl-1H-tetrazol-1-yl)ethan-1-one]	0.16	–
Cc1noc(CC(=O)N2CCC(c3nc(C4CC5CCC4C5)no3)CC2)n1 (stereo not drawn) [Compound 18, 1-(4-(3-(bicyclo[2.2.1]heptan-2-yl)-1,2,4-oxadiazol-5-yl)piperidin-1-yl)-2-(3-methyl-1,2,4-oxadiazol-5-yl)ethan-1-one]	> 10	–
Cc1noc(CC(=O)N2CCC(c3nc(C4CCC5(CC4)OCCO5)no3)CC2)n1 [Compound 19, 1-(4-(3-(1,4-dioxaspiro[4.5]decan-8-yl)-1,2,4-oxadiazol-5-yl)piperidin-1-yl)-2-(3-methyl-1,2,4-oxadiazol-5-yl)ethan-1-one]	> 10	–
Cc1noc(CC(=O)N2CCC(c3nc(C4CCCC4)no3)CC2)n1 [Compound 20, 1-(4-(3-cyclopentyl-1,2,4-oxadiazol-5-yl)piperidin-1-yl)-2-(3-methyl-1,2,4-oxadiazol-5-yl)ethan-1-one]	> 25	–
Cc1noc(CC(=O)N2CCC(n3nnc(C4CCCC4)n3)CC2)n1 [Compound 21, 1-(4-(5-cyclopentyl-2H-tetrazol-2-yl)piperidin-1-yl)-2-(3-methyl-1,2,4-oxadiazol-5-yl)ethan-1-one]	7.35	–
Cc1noc(CC(=O)N2CCC(c3nc(C4CCCC5CC54)no3)CC2)n1 (stereo not drawn) [Compound 22, 1-(4-(3-(bicyclo[4.1.0]heptan-2-yl)-1,2,4-oxadiazol-5-yl)piperidin-1-yl)-2-(3-methyl-1,2,4-oxadiazol-5-yl)ethan-1-one]	0.89	–
Cc1noc(CC(=O)N2CCC(c3nc(C4CCCCC4)no3)CC2)n1 [Compound 23, 1-(4-(3-cyclohexyl-1,2,4-oxadiazol-5-yl)piperidin-1-yl)-2-(3-methyl-1,2,4-oxadiazol-5-yl)ethan-1-one]	> 10	–
Cc1noc(CC(=O)N2CCC(n3nnc(C4CCCCC4)n3)CC2)n1 [Compound 24, 1-(4-(5-cyclohexyl-2H-tetrazol-2-yl)piperidin-1-yl)-2-(3-methyl-1,2,4-oxadiazol-5-yl)ethan-1-one]	> 25	–
Cc1noc(CC(=O)N2CCC(O)(c3nc(C4CCCCC4)no3)CC2)n1 [Compound 25, 1-(4-(3-cyclohexyl-1,2,4-oxadiazol-5-yl)-4-hydroxypiperidin-1-yl)-2-(3-methyl-1,2,4-oxadiazol-5-yl)ethan-1-one]	> 10	–
Cc1noc(CC(=O)N2CCC(c3nc(C45CCC(CC4)C5)no3)CC2)n1 [Compound 26, 1-(4-(3-(bicyclo[2.2.1]heptan-1-yl)-1,2,4-oxadiazol-5-yl)piperidin-1-yl)-2-(3-methyl-1,2,4-oxadiazol-5-yl)ethan-1-one]	> 25	–
Cc1noc(CC(=O)N2CCC(c3nc(C4(C)CCCCC4)no3)CC2)n1 [Compound 27, 2-(3-methyl-1,2,4-oxadiazol-5-yl)-1-(4-(3-(1-methylcyclohexyl)-1,2,4-oxadiazol-5-yl)piperidin-1-yl)ethan-1-one]	> 25	–
